# Like-named read-outs stand apart in the source and are kept apart here. Numbered stars: 1 amine (or outer) side, 2 acyl side, 3 side chain; on linkers, the order of the positions; unused ones are H or OH. Bridge positions count the residues as written; N and C are the ends. Square brackets hold non-standard residues; d marks the D form. Peptide text beside a SMILES is read from it. * marks the point of attachment. X3 = C[C@@H](Oc1ccc([C@H](N[*:1])C(=O)[*:2])cc1)C(O)(/C=C/C(=O)[*:3])CCl; X1 = C[C@@H](Oc1ccc([C@H](N[*:1])C(=O)[*:2])cc1)C1(/C=C/C(=O)[*:3])CO1; Pentanoyl(2R-Me,3R-OH,4-Me) = CC(C)[C@@H](O)[C@@H](C)C(=O)*; d(aIle) = CC[C@H](C)[C@@H](N)C(=O)O; d(aThr) = C[C@@H](O)[C@@H](N)C(=O)O; NMeF = CN[C@@H](Cc1ccccc1)C(=O)O
# Experiments:
# [1] = tested on: Gram-positive bacterial pathogens; details: reported previously (Trischman et al. 1994; Moore et al. 1999); cited from earlier work
# [2] = tested on: Vero E6 cells (ATCC CRL1586); assay: Cytotoxicity to mammalian cells in culture (CellTiter96 assay); format: cell-based; details: for MIC50 Vero E6 ATCC CRL1586: Table 3
# Text: MICs for mammalian cells (Vero E6) in culture were quantified using CellTiter96 assay (Promega. Inc.; procedures as specified by the manufacturer).
# [3] = molecular target: RNAP-promoter open complex (Escherichia coli, UniProt P0A8T7+P0A8V2); assay: Formation of the RNAP-promoter open complex; format: biochemical
# [4] = tested on: rifamycin-, CBR703-, streptolydigin-, myxopyronin- and lipiarmycin-resistant mutants; details: Ebright et al., WO/2012/129173; cited from earlier work
# [5] = tested on: Pseudomonas aeruginosa ATCC10145; assay: Antibacterial activity, broth microdilution; format: cell-based; details: Gram-negative bacterial pathogen
# Text: (§1) Antibacterial activity was quantified using broth microdilution [Clinical and Laboratory Standards Institute (CLSI/NCCLS), Methods for Dilution Antimicrobial Susceptibility Tests for Bacteria That Grow Aerobically; Approved Standard, Eighth Edition. CLIS Document M07-A8 (CLIS, Wayne Pa.), 2009]. Assays with Enterobacter cloacae ATCC13047, Pseudomonas aeruginosa ATCC10145, and Escherichia coli D21f2to1C, employed a starting cell density of 2-5×10^5 cfu/ml, Mueller Hinton II cation adjusted broth (BD Biosciences, Inc.), and an air atmosphere. Assays with Haemophilus influenzae ATCC49247 and Neisseria gonorrhoeae ATCC19424 employed a starting cell density of 2-5×10^5 cfu/ml, Haemophilus Test Medium broth (Barry et al., 1993) and a 5% CO2/95% air atmosphere. MIC50 was defined as the minimal concentration resulting in ≧50% inhibition of bacterial growth.
# [6] = tested on: Enterobacter cloacae ATCC13047; assay: Antibacterial activity, broth microdilution; format: cell-based; details: for MIC50: Enterobacter cloacae, ATCC13047, minimal concentration resulting in ≧50% inhibition of bacterial growth, read-out: MIC50 Enterobacter cloacae ATCC 13047; for antibacterial activity against Enterobacter cloacae: Gram-negative bacterial pathogen
# Text: as §1
# [7] = tested on: Haemophilus influenzae ATCC49247; assay: Antibacterial activity, broth microdilution; format: cell-based; details: Gram-negative bacterial pathogen
# Text: as §1
# [8] = tested on: Neisseria gonorrhoeae ATCC19424; assay: Antibacterial activity, broth microdilution; format: cell-based; details: Gram-negative bacterial pathogen
# Text: as §1
# [9] = tested on: Escherichia coli D21f2tolC; assay: Antibacterial activity, broth microdilution; format: cell-based; details: Escherichia coli, D21F2TOLC, read-out: MIC50 Escherichia coli D21f2tolC
# Text: as §1
# [10] = tested on: Gram-positive and Gram-negative bacterial RNAP; details: reported previously (Miao et al. 1997); cited from earlier work
# [11] = molecular target: Escherichia coli RNAP σ70 holoenzyme (Escherichia coli, UniProt P0A8T7+P0A8V2); assay: Fluorescence-detected RNAP assay, Escherichia coli RNAP; format: biochemical; details: fluorescent-detected RNAP assays
# Chain of Escherichia coli RNAP σ70 holoenzyme (P0A8T7 whole entry, the tested form may be a part): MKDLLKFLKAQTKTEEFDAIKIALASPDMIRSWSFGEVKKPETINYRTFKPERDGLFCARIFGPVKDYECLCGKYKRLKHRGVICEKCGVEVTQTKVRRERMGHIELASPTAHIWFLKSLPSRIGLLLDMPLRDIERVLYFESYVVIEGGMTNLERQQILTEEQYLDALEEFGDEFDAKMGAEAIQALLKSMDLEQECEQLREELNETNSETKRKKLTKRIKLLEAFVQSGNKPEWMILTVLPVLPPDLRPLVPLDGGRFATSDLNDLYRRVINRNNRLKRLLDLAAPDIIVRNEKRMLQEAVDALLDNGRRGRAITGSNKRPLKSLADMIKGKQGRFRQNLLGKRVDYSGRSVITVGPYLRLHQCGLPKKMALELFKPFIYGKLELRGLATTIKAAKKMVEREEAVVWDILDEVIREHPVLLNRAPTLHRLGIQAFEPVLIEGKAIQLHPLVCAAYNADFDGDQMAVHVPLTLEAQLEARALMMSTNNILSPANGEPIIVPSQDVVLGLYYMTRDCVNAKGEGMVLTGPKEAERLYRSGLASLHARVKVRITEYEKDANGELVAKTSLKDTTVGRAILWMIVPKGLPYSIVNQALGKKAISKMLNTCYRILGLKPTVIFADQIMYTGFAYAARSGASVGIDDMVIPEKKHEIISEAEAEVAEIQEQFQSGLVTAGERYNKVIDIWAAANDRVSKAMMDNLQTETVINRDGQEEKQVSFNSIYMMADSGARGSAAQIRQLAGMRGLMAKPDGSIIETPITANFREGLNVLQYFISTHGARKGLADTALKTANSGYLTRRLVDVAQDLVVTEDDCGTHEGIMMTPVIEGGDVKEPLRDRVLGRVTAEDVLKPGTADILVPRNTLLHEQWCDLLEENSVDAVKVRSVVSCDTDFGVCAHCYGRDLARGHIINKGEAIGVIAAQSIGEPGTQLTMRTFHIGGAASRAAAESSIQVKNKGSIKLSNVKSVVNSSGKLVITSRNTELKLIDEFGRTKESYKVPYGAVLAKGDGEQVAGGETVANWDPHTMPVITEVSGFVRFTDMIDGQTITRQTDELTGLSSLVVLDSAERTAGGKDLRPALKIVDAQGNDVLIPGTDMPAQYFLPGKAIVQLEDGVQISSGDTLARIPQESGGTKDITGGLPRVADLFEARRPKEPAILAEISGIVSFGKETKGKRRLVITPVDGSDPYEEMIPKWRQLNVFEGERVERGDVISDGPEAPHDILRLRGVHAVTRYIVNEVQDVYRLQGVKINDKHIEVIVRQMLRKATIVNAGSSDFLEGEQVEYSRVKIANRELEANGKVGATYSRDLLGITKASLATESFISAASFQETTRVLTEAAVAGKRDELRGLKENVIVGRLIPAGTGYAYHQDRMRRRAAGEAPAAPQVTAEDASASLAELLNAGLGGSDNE
# Chain of Escherichia coli RNAP σ70 holoenzyme (P0A8V2 whole entry, the tested form may be a part): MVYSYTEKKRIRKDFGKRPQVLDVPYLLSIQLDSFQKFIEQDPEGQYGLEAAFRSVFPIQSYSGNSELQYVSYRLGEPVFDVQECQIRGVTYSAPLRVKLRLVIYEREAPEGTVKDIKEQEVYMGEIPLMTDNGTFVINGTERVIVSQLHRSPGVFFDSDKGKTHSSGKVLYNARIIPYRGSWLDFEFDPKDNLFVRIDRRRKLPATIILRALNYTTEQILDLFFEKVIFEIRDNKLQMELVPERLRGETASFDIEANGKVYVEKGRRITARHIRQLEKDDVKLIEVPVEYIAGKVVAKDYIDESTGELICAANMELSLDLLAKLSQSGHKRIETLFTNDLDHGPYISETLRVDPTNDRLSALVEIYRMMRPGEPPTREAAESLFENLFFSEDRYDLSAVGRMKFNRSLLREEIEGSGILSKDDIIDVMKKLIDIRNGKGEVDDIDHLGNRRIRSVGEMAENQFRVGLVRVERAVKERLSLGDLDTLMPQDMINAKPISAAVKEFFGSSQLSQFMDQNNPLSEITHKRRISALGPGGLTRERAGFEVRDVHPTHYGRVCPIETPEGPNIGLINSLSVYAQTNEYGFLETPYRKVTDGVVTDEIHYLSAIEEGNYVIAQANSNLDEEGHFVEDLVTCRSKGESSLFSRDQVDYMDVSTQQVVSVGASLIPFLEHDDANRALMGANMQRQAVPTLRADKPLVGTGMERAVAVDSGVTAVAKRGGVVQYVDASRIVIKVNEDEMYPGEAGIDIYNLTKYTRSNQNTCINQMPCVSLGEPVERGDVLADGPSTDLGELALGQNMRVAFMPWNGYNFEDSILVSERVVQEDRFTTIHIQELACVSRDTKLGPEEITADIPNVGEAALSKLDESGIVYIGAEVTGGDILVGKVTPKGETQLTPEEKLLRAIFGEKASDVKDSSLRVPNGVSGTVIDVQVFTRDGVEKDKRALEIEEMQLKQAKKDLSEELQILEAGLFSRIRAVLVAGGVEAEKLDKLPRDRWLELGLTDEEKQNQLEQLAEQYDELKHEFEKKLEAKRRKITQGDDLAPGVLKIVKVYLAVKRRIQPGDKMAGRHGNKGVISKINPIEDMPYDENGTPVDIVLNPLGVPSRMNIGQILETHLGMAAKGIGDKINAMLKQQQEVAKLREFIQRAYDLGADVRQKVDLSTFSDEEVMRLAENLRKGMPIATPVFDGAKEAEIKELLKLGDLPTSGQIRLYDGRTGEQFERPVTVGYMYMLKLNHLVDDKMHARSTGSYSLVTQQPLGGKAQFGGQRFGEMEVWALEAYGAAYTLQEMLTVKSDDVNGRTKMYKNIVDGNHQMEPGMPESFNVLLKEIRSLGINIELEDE
# Chain of Escherichia coli RNAP σ70 holoenzyme (P0A7Z4 whole entry, further chain, the tested form may be a part): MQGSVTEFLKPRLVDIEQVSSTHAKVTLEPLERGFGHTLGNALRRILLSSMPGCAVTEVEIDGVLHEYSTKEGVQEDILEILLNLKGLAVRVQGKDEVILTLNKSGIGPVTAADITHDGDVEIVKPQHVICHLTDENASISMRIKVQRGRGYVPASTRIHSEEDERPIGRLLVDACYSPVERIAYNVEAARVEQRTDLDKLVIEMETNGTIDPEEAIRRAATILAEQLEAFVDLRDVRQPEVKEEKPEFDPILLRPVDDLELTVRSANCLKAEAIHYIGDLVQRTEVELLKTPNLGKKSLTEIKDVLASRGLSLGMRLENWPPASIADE
# Chain of Escherichia coli RNAP σ70 holoenzyme (P0A800 whole entry, further chain, the tested form may be a part): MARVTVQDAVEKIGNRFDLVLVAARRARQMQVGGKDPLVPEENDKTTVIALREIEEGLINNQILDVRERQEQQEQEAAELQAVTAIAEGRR
# Chain of Escherichia coli RNAP σ70 holoenzyme (P00579 whole entry, further chain, the tested form may be a part): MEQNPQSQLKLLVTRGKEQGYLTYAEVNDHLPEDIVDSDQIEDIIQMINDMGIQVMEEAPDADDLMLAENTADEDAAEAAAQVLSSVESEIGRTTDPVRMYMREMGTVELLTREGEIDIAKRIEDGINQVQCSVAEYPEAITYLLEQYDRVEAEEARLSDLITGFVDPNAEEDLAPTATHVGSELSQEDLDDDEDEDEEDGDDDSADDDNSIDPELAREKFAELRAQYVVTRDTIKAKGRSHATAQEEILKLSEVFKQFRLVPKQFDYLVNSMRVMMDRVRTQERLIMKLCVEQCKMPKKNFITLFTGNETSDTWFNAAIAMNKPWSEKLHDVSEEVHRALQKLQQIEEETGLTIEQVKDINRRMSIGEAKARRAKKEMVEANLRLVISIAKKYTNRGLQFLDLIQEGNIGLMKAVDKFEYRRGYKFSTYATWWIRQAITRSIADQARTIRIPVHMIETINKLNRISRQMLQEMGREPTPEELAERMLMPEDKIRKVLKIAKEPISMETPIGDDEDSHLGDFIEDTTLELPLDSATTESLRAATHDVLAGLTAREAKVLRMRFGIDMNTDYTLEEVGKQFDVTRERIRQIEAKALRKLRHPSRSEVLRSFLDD
# Procedure: Fluorescence-detected RNAP assays with Escherichia coli RNAP were performed by a modification of the procedure of Kuhlman et al., Anal. Biochem. 324:183-190, 2004]. Reaction mixtures contained (20 μl): 0-100 nM test compound, 75 nM Escherichia coli RNAP σ^70 holoenzyme, 20 nM 384 bp DNA fragment containing the bacteriophage T4 N25 promoter, 100 μM ATP, 100 μM GTP, 100 μM UTP, 100 μM CTP, 50 mM Tris-HCl, pH 8.0, 100 mM KCl, 10 mM MgCl2, 1 mM DTT, 10 μg/ml bovine serum albumin, and 5.5% glycerol. Reaction components other than DNA and NTPs were pre-incubated for 10 min at 37° C. Reactions were carried out by addition of DNA and incubation for 5 min at 37° C., followed by addition of NTPs and incubation for 60 min at 37° C. DNA was removed by addition of 1 μl 5 mM CaCl2 and 2 U DNasel (Ambion, Inc.), followed by incubation for 90 min at 37° C. RNA was quantified by addition of 100 μl RiboGreen RNA Quantitation Reagent (Invitrogen, Inc.; 1:500 dilution in Tris-HCl, pH 8.0, 1 mM EDTA), followed by incubation for 10 min at 25° C., followed by measurement of fluorescence intensity [excitation wavelength=485 nm and emission wavelength=535 nm; QuantaMaster QM1 spectrofluorometer (PTI, Inc.)].
# (§2) Half-maximal inhibitory concentrations (IC50s) were calculated by non-linear regression in SigmaPlot (SPSS, Inc.).
# [12] = tested on: RNAP; assay: Mechanism of transcription inhibition (nucleotide addition, trigger loop, NTP competition); format: biochemical
# [13] = tested on: rifamycin-, CBR703-, streptolydigin-, myxopyronin- and lipiarmycin-resistant mutants; details: disclosed herein
# [14] = tested on: human RNAP I, II, and III; assay: Radiochemical assay with human RNAP I, II, and III (HeLaScribe Nuclear Extract); format: biochemical; details: for IC50: read-out: IC50 human RNAP I/II/III
# Procedure: Radiochemical assays with human RNAP I, II, and III were performed essentially as described [Sawadogo and Roeder, Cell 43:165-75, 1985]. Reaction mixtures contained (20 μl): 0-100 μM test compound, 8 U HeLaScribe Nuclear Extract (Promega, Inc.), 1 μg human placental DNA (Sigma-Aldrich), 400 μM ATP, 400 μM [α^32P]UTP (0.11 Bq/fmol), 400 μM CTP, 400 μM GTP, 50 mM Tris-HCl, pH 8.0, 7 mM HEPES-NaOH, 70 mM (NH4)2SO4, 50 mM KCl, 12 mM MgCl2, 5 mM DTT, 0.1 mM EDTA, 0.08 mM phenylmethylsulfonyl fluoride, and 16% glycerol. Reaction components other than DNA and NTPs were pre-incubated 10 min at 30° C., DNA was added and reaction mixtures were incubated 15 min at 30° C., NTPs were added and reaction mixtures were incubated 60 min at 30° C. Reaction mixtures were spotted on DE81 filter discs (Whatman, Inc.; pre-wetted with water) and incubated 1 min at room temperature. Filters were washed with 3×3 ml Na2HPO4, 2×3 ml water, and 3 ml ethanol, using a filter manifold (Hoefer, Inc.). Filters were placed in scintillation vials containing 10 ml Scintiverse BD Cocktail (Thermo Fisher, Inc.), and radioactivity was quantified by scintillation counting (LS6500; Beckman-Coulter, Inc.).
# as §2
# [15] = tested on: bacterial cells in culture; details: Ebright et al., WO/2012/129173; cited from earlier work
# [16] = tested on: Gram-positive and Gram-negative bacterial RNAP; assay: Inhibition of bacterial RNAP in vitro (statement); format: biochemical; details: disclosed herein
SMILES,antibacterial activity against Gram-positive bacterial pathogens [1],inhibition of growth of mammalian cells in culture [2],MIC50 Vero E6 ATCC CRL1586 [2] [µg/mL],antibacterial activity against Pseudomonas aeruginosa [5],MIC50 [6] [µg/mL],antibacterial activity against Enterobacter cloacae [6],antibacterial activity against Haemophilus influenzae [7],antibacterial activity against Neisseria gonorrhoeae [8],MIC50 [9] [µg/mL],IC50 [11] [µM],"inhibition of human RNAP I, II, and III [14]",IC50 [14] [µM],also measured
"CC[C@H](C)[C@H]1NC(=O)[C@@H](NC(=O)[C@H](C)[C@H](O)C(C)C)[C@@H](C)OC(=O)[C@@H]2COC(=O)CNC(=O)/C=C/C3(CO3)[C@@H](C)Oc3ccc(cc3)[C@H](NC1=O)C(=O)N(C)[C@@H](Cc1ccccc1)C(=O)N[C@H]([C@@H](C)O)C(=O)N2 (stereo partly drawn) [SalA (1), salinamide A] ({Pentanoyl(2R-Me,3R-OH,4-Me)}-T[d(aIle)][X1][NMeF][d(aThr)]S; ester 1-C; linker 3-6 via G)",exhibit antibacterial activity,do not detectably inhibit,>100,exhibit antibacterial activity,1.56,exhibit antibacterial activity,exhibit antibacterial activity,exhibit antibacterial activity,0.024,1,do not detectably inhibit,> 100,"inhibition of formation of the RNAP-promoter open complex in transcription initiation [3]: does not inhibit; cross-resistance of CBR703-resistant mutants to Sal [4]: not cross-resistant; cross-resistance of rifamycin-resistant mutants to Sal [4]: not cross-resistant; inhibition of Gram-positive and Gram-negative bacterial RNAP in vitro [10]: inhibits; inhibition of nucleotide addition in transcription initiation and transcription elongation [12]: inhibits; inhibition of wild-type RNAP versus RNAP-derivative having a deletion of the trigger loop [12]: equal extents; mode of transcription inhibition with respect to NTP substrate [12]: noncompetitive; cross-resistance of streptolydigin-resistant, myxopyronin-resistant, and lipiarmycin-resistant mutants with Sal [13]: do not exhibit cross-resistance; inhibition of RNA synthesis in bacterial cells in culture [15]: inhibits"
"CC[C@H](C)[C@H]1NC(=O)[C@@H](NC(=O)[C@H](C)[C@H](O)C(C)C)[C@@H](C)OC(=O)[C@@H]2COC(=O)CNC(=O)/C=C/C(O)(CCl)[C@@H](C)Oc3ccc(cc3)[C@H](NC1=O)C(=O)N(C)[C@@H](Cc1ccccc1)C(=O)N[C@H]([C@@H](C)O)C(=O)N2 (stereo partly drawn) [SalB (2), salinamide B] ({Pentanoyl(2R-Me,3R-OH,4-Me)}-T[d(aIle)][X3][NMeF][d(aThr)]S; ester 1-C; linker 3-6 via G)",exhibit antibacterial activity,do not detectably inhibit,>100,exhibit antibacterial activity,6.25,exhibit antibacterial activity,exhibit antibacterial activity,exhibit antibacterial activity,0.098,1,do not detectably inhibit,> 100,inhibition of Gram-positive and Gram-negative bacterial RNAP in vitro [16]: inhibits
